Tests used:
[1] = "Electrically-provoked combat" test (anxiolytic action); assay type: in vivo, mouse; settings: for protection against anxiety: same experimental conditions
Description: Under certain conditions, a pair of mice reacts to an electric stimulus by a series of combats which are provoked by the anxiety felt by the animals as a result of the electric shock. This anxiety is expressed by a combat with the other animal which is rendered responsible. For this reason, the test described hereunder can be considered as a means of evaluating the anxiolytic action of a compound. Two mice which have been previously on a diet consisting only of water are placed together in a cage. They are then submitted to a series of electric impulses of an intensity varying between 40 and 80 volts according to the sensitivity of the animals. The test is first carried out with untreated animals as controls and then with the same animals treated 30 minutes before the test with a dose of the compound to be studied.
Note is taken on the number of combats engaged. The results are expressed in percentage of decrease in the number of combats engaged by the treated animals in comparison with the number of combats registered before treatment.

[2] = rota rod test (neurotoxicity); assay type: in vivo, mouse; settings: for % of failures in rota rod test: mice, 30 min after administration; for Rota rod (% of failures): comparison at 25%-protection dose of four plates test
Experimental: The test used was that known as the rota rod test described by BOISSIER (Therapie 1958 XIII pp. 1074-1118).
This test aims at determining the ability of mice to coordinate their movements by seeing to what extent they can remain on a roller turning at a rate of 4 revolutions per minute for two minutes. The trial was carried out thirty minutes after administration by oral route of the compound to be studied and the percentage of failures was noted.
The value of this test is twofold. Failure on the part of the animals gives a very early indication of the slightest damage to the meuromuscular functions which cannot be discerned by any other means. Secondly, this test serves as an element of comparison for drawing up index figures involving the results obtained with other tests.

[3] = Action on the pentylenetetrazole-induced seizure (anticonvulsant activity); assay type: in vivo, mouse
Experimental: The purpose of this test which is carried out on mice is to determine whether the compounds of the invention, when given preventively by oral route, are capable at certain doses of protecting some of the animals against the epileptic seizure produced by a predetermined dose of pentylenetetrazole which would be 100% fatal in the absence of the compound.
The compound to be studied was administered fifteen minutes before an injection of 125 mg/kg of pentylenetetrazole and note was taken of the number of deaths occurring during the three hours following this injection. The results were expressed in percentage of protection of the animals against death at the dose studied.

[4] = Four plates test (anxiolytic action); assay type: in vivo, mouse; settings: for ED25: po, read-out: ED25 in the four plates test (dose which offers 25%-protection against anxiety); for positive result in four plates test without sedative effect: at ED25 of four plates test
Description: This test, which is specific to the anxiolytics, was undertaken with the mouse, thirty minutes after the oral administration of the compound to be studied.
It consists in placing mice in a box with fairly high walls, of which the bottom comprises four square plates. These plates, which all have the same dimensions, are separated from each other by a central axis and are alternately electrified by the positive and negative poles of a source of electric current. There is a space of a few millimeters between adjacent plates.
The mouse placed in this apparatus explores it and thus passes over the different plates in succession. Note is taken of the number of times each animal passes over the plates during one minute. When the current is switched on, the mouse passing over the plates receives an electric shock (80 V), which provokes a gradual decrease in the exploratory movements, and finally brings the animals to a complete stop.
Anxiolytic agents enable the animals to become more or less indifferent to the electric shock.
The percentage of protection against anxiety given by compounds of the invention was calculated by comparing the number of times the control animals passed over the plates when electrified with the number of times the treated animals passed over the electrified plates.

[5] = Action with respect to tremorine (cholinolytic properties); assay type: in vivo, mouse; settings: 100 mg/kg oral, mice, 30 min before 100 mg/kg i.p. tremorine
Experimental: This test has been described by EVERETT (Nature, 1956, 177-238)
When injected into mice, tremorine produces peripheral cholinergic effects i.e. weeping, hypersalivation, sedation, diarrhea as well as central cholinergic effects i.e. tremors, akinesia.
Batches of 10 mice separated into individual cages, were given the compound to be studied, by oral route, 30 minutes before administration of an intraperitoneal dose of 100 mg/kg of tremorine.
Note was then taken in each batch of the percentage of animals presenting the various symptoms of tremorine-induced poisoning since at such a dose of tremorine 100% of the control animals are poisoned.
The results hereunder are expressed in percentage of mice protected against tremor at the dose of the compound of the invention which was administered: […]

[6] = spontaneous motoricity in the mouse; assay type: in vivo; settings: for Spontaneous motoricity (% of decrease): comparison at 25%-protection dose of four plates test
Description: This test is described in U.S. Pat. No. 3,929,869.

[7] = Aggressivity of the isolated mouse (antiaggressive activity); assay type: in vivo
Description: If a male mouse is isolated in a cage for three to four weeks, it will spontaneously attack any other animal of the same species which is placed in the same cage.
Mice wer isolated for the period of time required to render them spontaneously aggressive. Two mice, one rendered aggressive and one in a normal non-aggressive state, were then placed together and note was taken of the number of attacks by the aggressive mouse which occurred over a period of three minutes.
Each batch was composed of five pairs of animals.
The aggressive animals of each batch were then treated by oral route with the compound to be studied which was administered in such a way that the aggressive animals of each batch received a higher dose than those of the preceding batch.
Thirty minutes after administration, the couples were placed together again for a further three minutes and the number of attacks noted.

[8] = Mus musculus, po, 3 h, read-out: % of protection against death
[9] = Mus musculus, 0.5 h, mice, 30 min before test, read-out: % of decrease in number of combats
[10] = at the dose which provokes a 60%-decrease in the number of combats

## CCC#CC(CCC)(CCC)NC(N)=O [Compound B, 1-(1,1-Di-n-propyl-2-pentynyl)-urea]
[1]; Mus musculus, 0.5 h, 56.5 mg/kg, mice, 30 min before test, read-out: % of decrease in number of combats
  inhibition in vivo at 56.5 mg/kg: 52%

## CC#CC(CCC)(CCC)NC(N)=O [Compound D, 1-(1,1-Di-n-propyl-2-butynyl)-urea]
[2]; 250 mg/kg oral
  % of failures in rota rod test: 50%
[1]; Mus musculus, 0.5 h, 74 mg/kg, mice, 30 min before test, read-out: % of decrease in number of combats
  inhibition in vivo at 74 mg/kg: 50%
[3]; [8]
  responders at 80.5 mg/kg: 50%
[3]; pentylenetetrazole-induced seizure, mice, oral
  anticonvulsant activity (in words): considerable

## C=CCC(CCC)(CCC)NC(N)=O [Compound E, 1-(1,1-Di-n-propyl-3-butenyl)-urea]
[1]; Mus musculus, 0.5 h, 50 mg/kg, mice, 30 min before test, read-out: % of decrease in number of combats
  inhibition in vivo at 50 mg/kg: 70%
[4]; 0.5 h, 100 mg/kg oral, mouse, 30 min after administration, read-out: % of protection against anxiety
  inhibition in vivo at 100 mg/kg: 27%
[3]; [8]
  responders at 300 mg/kg: 90%
[5]
  % of protection against tremor: 0%

## CCC(CC)(CC)NC(N)=O [Compound F, 1-(1,1-Diethyl-n-propyl)-urea]
[1]; Mus musculus, 0.5 h, 82 mg/kg, mice, 30 min before test, read-out: % of decrease in number of combats
  inhibition in vivo at 82 mg/kg: 50%
[4]; 0.5 h, 175 mg/kg oral, mouse, 30 min after administration, read-out: % of protection against anxiety
  inhibition in vivo at 175 mg/kg: 16%
[3]; [8]
  responders at 150 mg/kg: 50%

## CCCCC(C)(CC)NC(N)=O (stereo not shown) [Compound G, 1-(1-Methyl-1-ethyl-pentyl)-urea]
[1]; Mus musculus, 0.5 h, 94 mg/kg, mice, 30 min before test, read-out: % of decrease in number of combats
  inhibition in vivo at 94 mg/kg: 48%
[4]; 0.5 h, 282 mg/kg oral, mouse, 30 min after administration, read-out: % of protection against anxiety
  inhibition in vivo at 282 mg/kg: 18%
[3]; [8]
  responders at 188 mg/kg: 20%

## CCCC(CCC)(NC(N)=O)C(C)C [Compound H, 1-(1-n-Propyl-1-isopropyl-n-butyl)-urea]
[1]; Mus musculus, 0.5 h, 110 mg/kg, mice, 30 min before test, read-out: % of decrease in number of combats
  inhibition in vivo at 110 mg/kg: 50%
[4]; 0.5 h, 250 mg/kg oral, mouse, 30 min after administration, read-out: % of protection against anxiety
  inhibition in vivo at 250 mg/kg: 39%

## CCCC(CCC)(CCC)NC(=O)N(C)C [Compound I, 1-(1,1-Di-n-propyl-n-butyl)-3,3-dimethyl-urea]
[1]; [9]
  inhibition in vivo at 200 mg/kg: 55%
[4]; 0.5 h, 350 mg/kg oral, mouse, 30 min after administration, read-out: % of protection against anxiety
  inhibition in vivo at 350 mg/kg: 29%

## CCCCC(CCCC)(CCCC)NC(N)=O [Compound J, 1-(1,1-Di-n-butyl-n-pentyl)-urea]
[2]; 500 mg/kg oral
  % of failures in rota rod test: 0%
[1]; [9]
  inhibition in vivo at 200 mg/kg: 67%

## CCCC(CCC)(CCC)NC(=O)NC [Compound K, 1-(1,1-Di-n-propyl-n-butyl)-3-methyl-urea]
[2]; 300 mg/kg oral, mouse (ED25 in four plates test)
  failures in the rota rod test: no failures
[2]; 600 mg/kg oral
  % of failures in rota rod test: 0%
[2]; at ED25 of four plates test
  sedative effect relative to reference products: much less sedative than diazepam and meprobamate
[1]; [9]
  inhibition in vivo at 200 mg/kg: 42%
[4]; 0.5 h, 300 mg/kg oral, mouse, 30 min after administration, read-out: % of protection against anxiety
  inhibition in vivo at 300 mg/kg: 25%
[4]; 0.5 h, mouse
  ED25: 300 mg/kg
[3]; Mus musculus, 3 h, 200 mg/kg oral, mice, 15 min before 125 mg/kg pentylenetetrazole, read-out: % of protection against death
  responders at 200 mg/kg: 30%

## C=CCC(CCC)(CCC)NC(=O)NC [Compound L, 1-(1,1-Di-n-propyl-3-butenyl)-3-methyl-urea]
[1]; Mus musculus, 0.5 h, 228 mg/kg, mice, 30 min before test, read-out: % of decrease in number of combats
  inhibition in vivo at 228 mg/kg: 53%

## C#CCNC(=O)NC(CCC)(CCC)CCC [Compound M, 1-(1,1-Di-n-propyl-n-butyl)-3-(2-propynyl)-urea]
[2]; 635 mg/kg oral
  % of failures in rota rod test: 0%
[1]; Mus musculus, 0.5 h, 254 mg/kg, mice, 30 min before test, read-out: % of decrease in number of combats
  inhibition in vivo at 254 mg/kg: 56%

## C=CCNC(=O)NC(CCC)(CCC)CCC [Compound N, 1-(1,1-Di-n-propyl-n-butyl)-3-(2-propenyl)-urea]
[2]; 720 mg/kg oral
  % of failures in rota rod test: 0%
[1]; Mus musculus, 0.5 h, 360 mg/kg, mice, 30 min before test, read-out: % of decrease in number of combats
  inhibition in vivo at 360 mg/kg: 30%
[3]; Mus musculus, 3 h, 240 mg/kg oral, mice, 15 min before 125 mg/kg pentylenetetrazole, read-out: % of protection against death
  responders at 240 mg/kg: 20%

## CCCC(CCC)(CC(C)C)NC(N)=O [Compound P, 1-(1,1-Di-n-propyl-3-methyl-n-butyl)-urea]
[2]; 690 mg/kg oral
  % of failures in rota rod test: 0%
[1]; Mus musculus, 0.5 h, 460 mg/kg, mice, 30 min before test, read-out: % of decrease in number of combats
  inhibition in vivo at 460 mg/kg: 31%

## CN1C(=O)CN=C(c2ccccc2)c2cc(Cl)ccc21 [diazepam, reference compound]
[2]; [10]
  failures in the rota rod test: 12%
[2]; 2 mg/kg
  Rota rod (% of failures): 35%
[6]; 2 mg/kg
  Spontaneous motoricity (% of decrease): 57%
[6]; dose producing 80% decrease in the number of combats
  decrease in spontaneous motoricity at dose giving 80% reduction in combats: 40%
[1]; 0.69 mg/kg
  protection against anxiety: 50%
[1]; mice, without action on spontaneous motoricity
  decrease in number of combats obtainable without altering spontaneous motoricity: ≤ 15%
[4]
  positive result in four plates test without sedative effect: impossible
[4]; 0.5 h, mouse
  ED25: 2 mg/kg
[4]; sedative effects too intense above 2 mg/kg
  ED50 in the four plates test: not possible to obtain a ED50
[7]; 8 mg/kg
  sedative effects: strongly sedative
[7]; 8 mg/kg (strongly sedative), isolated mouse
  reduction in the number of attacks: 38%
[7]; doses active in four plates and electrically-provoked combat tests
  activity in the isolated mouse test: devoid of activity
[7]; up to 4 mg/kg, isolated mouse
  antiaggressive effect: no results

## CCCC(C)(COC(N)=O)COC(N)=O [meprobamate, reference compound]
[2]; 170 mg/kg (ED50 in isolated mouse test)
  rota rod test effect: 75%
[2]; [10]
  failures in the rota rod test: 35%
[2]; 79 mg/kg
  Rota rod (% of failures): 30%
[6]; 79 mg/kg
  Spontaneous motoricity (% of decrease): 11%
[1]; 70 mg/kg
  protection against anxiety: 50%
[4]
  positive result in four plates test without sedative effect: impossible
[4]; 0.5 h, mouse
  ED25: 79 mg/kg
[7]; 170 mg/kg
  sedative effects at antiaggressive dose: considerable
[7]; 0.5 h, oral, isolated mouse, 30 min after administration, read-out: ED50 (50% fewer attacks)
  ED50: 170 mg/kg
